Assay results reported in US8399462B2, “JNK modulators” (Roche Palo Alto LLC, priority 2006, dated 2013).

`O[C@H]1CC[C@H](Nc2nccc(-c3noc4ccc(F)cc34)n2)CC1` [Compound 83, 4-[4-(5-fluorobenzo[d]-isoxazol-3-yl)-pyrimidin-2-ylamino]-cyclohexanol] and `CCc1cccc2c1cnn2-c1ccnc(N[C@H]2CC[C@H](O)CC2)n1` [Compound 99, 4-[4-(4-ethylindazol-1-yl)-pyrimidin-2-yl-amino]-cyclohexanol] cannot be ordered by melting point: 172 to 173.9 °C for the first, 170.2 to 174.4 °C for the second.

Compared with `OCCOc1ccc2cnn(-c3ccnc(N[C@H]4CC[C@H](O)CC4)n3)c2c1` [Compound 89, 4-{4-[6-(2-hydroxy-ethoxy)-indazol-1-yl]-pyrimidin-2-ylamino}-cyclohexanol], `OCC(O)COc1ccc2cnn(-c3ccnc(N[C@H]4CC[C@H](O)CC4)n3)c2c1` (stereo partly drawn) [Compound 93, 3-{1-[2-(4-hydroxy-cyclohexylamino)-pyrimidin-4-yl]-1H-indazol-6-yloxy}-propane-1,2-diol] is higher in melting point: 216.5 to 218.5 °C for the first, 223.8 to 224.7 °C for the second.

First: OCCOc1cccc2c1cnn2-c1ccnc(N[C@H]2CC[C@H](O)CC2)n1 [Compound 90, 4-{4-[4-(2-hydroxy-ethoxy)-indazol-1-yl]-pyrimidin-2-ylamino}-cyclohexanol]
Second: CNC(=O)COc1cccc2c1cnn2-c1ccnc(N[C@H]2CC[C@H](O)CC2)n1 [Compound 112, 2-{1-[2-(4-hydroxy-cyclohexylamino)-pyrimidin-4-yl]-1H-indazol-4-yloxy}-N-methyl-acetamide]
The melting point of the first is lower: 208.2 to 210.2 °C for the first, 226 to 227 °C for the second.

First: COc1cccc2c1cnn2-c1ccnc(NC2CCC(NC(C)=O)CC2)n1 (stereo not drawn) [Compound 91, N-{4-[4-(4-methoxy-indazol-1-yl]-pyrimidin-2-ylamino}-cyclohexane}-acetamide]
Second: CC(=O)N[C@H]1CC[C@H](Nc2nccc(-n3ncc4c(OCCO)cccc43)n2)CC1 [Compound 130, N-(4-{4-[4-(2-hydroxy-ethoxy)-indazol-1-yl]-pyrimidin-2-ylamino}-cyclohexyl)-acetamide]
The melting point of the first is higher: 256.9 to 259.9 °C for the first, 242.7 to 245.5 °C for the second.

Compared with `CN(c1cccc2c1ccn2-c1ccnc(N[C@H]2CC[C@H](O)CC2)n1)S(C)(=O)=O` [Compound 92, N-{1-[2-(4-hydroxy-cyclohexylamino)-pyrimidin-4-yl]-1H-indol-4-yl}-N-methyl-methanesulfonamide], `CS(=O)(=O)Nc1cccc2c1ccn2-c1ccnc(N[C@H]2CC[C@H](O)CC2)n1` [Compound 97, N-{1-[2-(4-hydroxy-cyclohexylamino)-pyrimidin-4-yl]-1H-indol-4-yl}-N-methane-sulfonamide] is higher in melting point: 235.8 to 236.2 °C for the first, 240.2 to 240.8 °C for the second.

First: O=C(COc1cccc2c1cnn2-c1ccnc(N[C@H]2CC[C@H](O)CC2)n1)N[C@H]1CC[C@H](O)CC1 [Compound 95, N-(4-hydroxy-cyclo-hexyl)-2-{1-[2-(4-hydroxy-cyclohexyl-amino)-pyrimidin-4-yl]-1H-indazol-4-yloxy}-acetamide]
Second: CNC(=O)COc1cccc2c1cnn2-c1ccnc(N[C@H]2CC[C@H](C(=O)N(C)C)CC2)n1 [Compound 124, 4-[4-(4-methylcarba-moylmethoxy-indazol-1-yl)-pyrimidin-2-yl-amino]-cyclohexane-carboxylic acid dimethylamide]
The melting point of the first is higher: 220 to 222.3 °C for the first, 183 to 185 °C for the second.

First: CNC(=O)OCc1cccc2c1ccn2-c1ccnc(N[C@H]2CC[C@H](O)CC2)n1 [Compound 100, Methyl-carbamic acid 1-[2-(4-hydroxy-cyclo-hexylamino)-pyrimidin-4-yl]-1H-indol-4-ylmethyl ester]
Second: COCc1cccc2c1ccn2-c1ccnc(N[C@H]2CC[C@H](O)CC2)n1 [Compound 102, 4-[4-(4-methoxymethyl-indol-1-yl)-pyrimidin-2-ylamino]-cyclohexanol]
The melting point of the first is lower: 132 to 133 °C for the first, 134.8 to 137.3 °C for the second.

First: N#CCc1cccc2c1ccn2-c1ccnc(N[C@H]2CC[C@H](O)CC2)n1 [Compound 101, {1-[2-(4-hydroxy-cyclo-hexylamino)-pyrimidin-4-yl]-1H-indol-4-yl}-acetonitrile]
Second: CC(C)(O)[C@H]1CC[C@H](Nc2nccc(-n3ccc4c(CC#N)cccc43)n2)CC1 [Compound 123, (1-{2-[4-(1-hydroxy-1-methylethyl)-cyclo-hexylamino]-pyrimidin-4-yl}-1H-indol-4-yl)-acetonitrile]
The melting point of the first is higher: 207 to 209 °C for the first, 188 to 191.7 °C for the second.

Compared with `O[C@H]1CC[C@H](Nc2nccc(-n3ncc4c(OCc5ccccn5)cccc43)n2)CC1` [Compound 103, 4-{4-[4-(pyridine-2-yl-methoxy)-indazol-1-yl]-pyrimidin-2-ylamino}-cyclohexanol], `COc1cccc2c1cnn2-c1ccnc(N[C@H]2CC[C@H](C(=O)N(C)C)CC2)n1` [Compound 105, 4-[4-(4-methoxyindazol-1-yl)-pyrimidin-2-ylamino]-cyclo-hexanecarboxylic acid dimethylamide] is higher in melting point: 202.5 to 203.6 °C for the first, 278.8 to 280 °C for the second.

Compared with `O=C1c2ccccc2C(=O)N1Cc1cccc2c1ccn2-c1ccnc(N[C@H]2CC[C@H](O)CC2)n1` [Compound 106, 2-{1-[2-(4-hydroxy-cyclohexylamino)-pyrimidin-4-yl]-1H-indol-4-ylmethyl}-isoindole-1,3-dione], `CCS(=O)(=O)Cc1cccc2c1ccn2-c1ccnc(N[C@H]2CC[C@H](O)CC2)n1` [Compound 108, 4-[4-(4-ethanesulfonyl-methyl-indol-1-yl)-pyrimidin-2-ylamino]-cyclohexanol] is lower in melting point: 251.7 to 253 °C for the first, 193.3 to 194.6 °C for the second.

First: CC(C)(O)c1cccc2c1ccn2-c1ccnc(N[C@H]2CC[C@H](C(=O)NCCS(C)(=O)=O)CC2)n1 [Compound 107, 4-{4-[4-(1-hydroxy-1-methylethyl)-indol-1-yl]-pyrimidin-2-yl-amino}-cyclohexane-carboxylic acid (2-methanesulfonyl-ethyl)-amide]
Second: CC(C)(O)c1cccc2c1ccn2-c1ccnc(N[C@H]2CC[C@H](NS(C)(=O)=O)CC2)n1 [Compound 117, N-(4-{4-[4-(1-hydroxy-1-methylethyl)-indol-1-yl]-pyrimidin-2-yl-amino}-cyclohexyl)-methanesulfonamide]
The melting point of the first is lower: 208 to 210 °C for the first, 247 to 249.6 °C for the second.

First: CC(=O)N[C@H]1CC[C@H](Nc2nccc(-n3ccc4c(C(C)(C)O)cccc43)n2)CC1 [Compound 109, N-(4-{4-[4-(1-hydroxy-1-methylethyl)-indol-1-yl]-pyrimidin-2-yl-amino}-cyclohexyl)-acetamide]
Second: CC(C)(O)c1cccc2c1ccn2-c1ccnc(N[C@H]2CC[C@H](C(=O)N3CCCC3)CC2)n1 [Compound 116, (4-{4-[4-(1-hydroxy-1-methylethyl)-indol-1-yl]-pyrimidin-2-yl-amino}-cyclohexyl)-pyrrolidin-1-yl-methanone]
The melting point of the first is lower: 172 to 173.6 °C for the first, 207.8 to 209.8 °C for the second.

First: CS(=O)(=O)N[C@H]1CC[C@H](Nc2nccc(-n3ccc4c(CC#N)cccc43)n2)CC1 [Compound 110, N-{4-[4-(4-cyano-methyl-indol-1-yl)-pyrimidin-2ylamino]-cyclohexyl}-methane-sulfonamide]
Second: CS(=O)(=O)N[C@H]1CC[C@H](Nc2nccc(-n3ccc4c(F)cccc43)n2)CC1 [Compound 134, N-{4-[4-(4-fluoro-indol-1-yl)-pyrimidin-2-ylamino]-cyclohexyl}-methane sulfonamide]
The melting point of the first is lower: 235 to 235.5 °C for the first, 248.7 to 249.4 °C for the second.

First: N#CCc1cccc2c1ccn2-c1ccnc(N[C@H]2CC[C@H](C(=O)N3CCCC3)CC2)n1 [Compound 114, (1-{2-[4-(pyrrolidino-1-carbonyl)-cyclohexyl-amino]-pyrimidin-4-yl}-1H-indol-4-yl)-acetonitrile]
Second: COc1cccc2c1cnn2-c1ccnc(N[C@H]2CC[C@H](C(=O)N3CCCC3)CC2)n1 [Compound 125, {4-[4-(4-methoxy-indazol-1-yl)-pyrimidin-2-ylamino]-cyclohexyl}-pyrrolidin-1-ylmethanone]
The melting point of the first is lower: 136 to 137.5 °C for the first, 246.5 to 247 °C for the second.

First: CS(=O)(=O)N[C@H]1CC[C@H](Nc2ncc(F)c(-n3ccc4ccccc43)n2)CC1 [Compound 115, N-[4-(5-fluoro-4-indol-1-yl-pyrimidin-2-ylamino)-cyclohexyl]-methanesulfonamide]
Second: CS(=O)(=O)N[C@H]1CC[C@H](Nc2ncc(Cl)c(-n3ccc4ccccc43)n2)CC1 [Compound 118, N-[4-(5-chloro-4-indol-1-ylpyrimidin-2-yl-amino)-cyclohexyl]-methanesulfonamide]
The melting point of the first is higher: 270 to 270.5 °C for the first, 203.8 to 204.9 °C for the second.

First: CC(=O)N[C@H]1CC[C@H](Nc2ncc(Cl)c(-n3ccc4ccccc43)n2)CC1 [Compound 119, N-[4-(5-chloro-4-indol-1-ylpyrimidin-2-yl-amino)-cyclohexyl]-acetamide]
Second: O=C([C@H]1CC[C@H](Nc2ncc(Cl)c(-n3ccc4ccccc43)n2)CC1)N1CCCC1 [Compound 120, [4-(5-chloro-4-indol-1-ylpyrimidin-2-ylamino)-cyclohexyl]-pyrrolidin-1-ylmethanone]
The melting point of the first is higher: 263.2 to 263.8 °C for the first, 182 to 182.5 °C for the second.

First: COc1cccc2c1cnn2-c1ccnc(N[C@H]2CC[C@H](NS(C)(=O)=O)CC2)n1 [Compound 126, N-{4-[4-(4-methoxy-indazol-1-yl)-pyrimidin-2-ylamino]-cyclohexyl}-methanesulfonamide]
Second: CN(C)S(=O)(=O)N[C@H]1CC[C@H](Nc2nccc(-n3ncc4ccccc43)n2)CC1 [Compound 136, Dimethyl sulfonamide [4-(4-indazol-1-yl)-pyrimidin-2-ylamino]-cyclohexyl amine]
The melting point of the first is higher: 291.5 to 292.5 °C for the first, 238.5 to 239.7 °C for the second.

Work on `CC(O)c1cccc2c1ccn2-c1ccnc(N[C@H]2CC[C@H](NS(C)(=O)=O)CC2)n1` (stereo partly drawn) [Compound 135, N-(4-{4-[4-(1-hydroxy-ethyl)-indol-1-yl]-pyrimidin-2-ylamino}-cyclohexyl)-methane-sulfonamide] yielded a melting point of 244.5 to 245.3 °C.

With `O[C@H]1CC[C@H](Nc2nccc(-n3ncc4c(OCC5CC5)cccc43)n2)CC1` [Compound 94, 4-[4-(4-cyclopropyl-methoxy-indazol-1-yl)-pyrimidin-2-ylamino]-cyclohexanol] the melting point was > 300 °C.
